From patent US7169930B2, “Analogs of epothilone” (The Scripps Research Institute, priority 2002, dated 2007)

How the values were obtained:
[1] = tested on: 1A9 human ovarian carcinoma cells; settings: previous data, Tetrahedron 2002, 58, 6413; cited from earlier work
[2] = molecular target: taxoid binding site of microtubules; experiment: Fluorescent taxoid (Flutax-2) displacement assay; settings: 37° C., read-out: equilibrium dissociation constant Kd
Protocol: In addition to the above biological assays, the relative potency of each epothilone analogue was measured by the fluorescent taxoid displacement assay (Andreu, J. M.; Barasoain, I. Biochemistry 2001, 40, 11975–11984). The purpose of these experiments was to compare the equilibrium constants with which microtubules bind at their taxane site the epothilone analogues investigated. The inhibition of the binding of the well-characterized fluorescent taxoid Flutax-2 (Souto, A. A.; et al. Angew. Chem. Int. Ed. Engl. 1995, 34, 2710–2712; Diaz, J. F.; et al. J. Biol. Chem. 2000, 275, 26265–26276; Abal, M.; et al. Cell. Motil. Cytoskeleton 2001, 49, 1–15) to microtubules by each of the epothilone analogues was measured at 37° C. (FIG. 2). […]
FIG. 2 illustrates a chart showing the displacement of the fluorescent taxoid Flutax-2 (50 nM) from microtubule binding sites (50 nM) by competing ligands at 37° C. […] Representative curves for selected epothilone analogues (3, 4, and 8) are presented in this figure to exemplify how the binding affinities were measured for each compound in Table 3.
FIG. 16 illustrates a table disclosing binding affinities of epothilone analogues to the taxoid binding site of microtubules. […] The binding constant of the reference ligand Flutax-2 was measured by centrifugation and fluorescence anisotropy, at each temperature (Diaz, J. F.; et al. J. Biol. Chem. 2000, 275, 26265–26276).

porcine tubulin = porcine tubulin (Sus scrofa, UniProt P02554); settings: data from ref. 3; cited from earlier work
[3] = tested on: 1A9 human ovarian carcinoma cells; experiment: Cytotoxicity, 72 h growth inhibition SRB (sulforhodamine-B) assay, parental cell line; assay type: cell-based
Protocol: The biological activities of the synthesized epothilones were evaluated through cytotoxicity, in vitro tubulin polymerization, and tubulin binding assays. Cytotoxicity was first evaluated in a set of ovarian carcinoma cell lines, including a parental cell line (IA9) and three drug-resistant cell lines, namely the paclitaxel-resistant strains (Giannakakou, P.; et al. J. Biol. Chem. 1997, 272, 17118–17125) IA9/PTX10 and IA9/PTX22 and the epothilone-resistant strain (Giannakakou, P.; et al. Proc. Natl. Acad. Sci. U.S.A. 2000, 97, 2904–2909) 1A9/A8. These resistant cell lines harbor distinct acquired β-tubulin mutations which affect drug-tubulin interaction and result in impaired taxane and epothilone-driven tubulin polymerization. The results of these biological investigations are summarized in Table 1 (Skehan, P.; et al. J. Natl. Cancer Inst. 1990, 82, 1107–1112). […]
(§1) The biological activities of the synthesized epothilones were evaluated through cell growth inhibition assays (cytotoxicity assays). Cytotoxicity was first evaluated in a set of ovarian carcinoma cell lines, including a parental cell line (IA9) and three drug-resistant cell lines, namely the paclitaxel-resistant cell lines IA9/PTX10 and IA9/PTX22 (Giannakakou, P.; et al. J. Biol. Chem. 1997, 272, 17118–17125.) and the epothilone-resistant cell line 1A9/A8 (Giannakakou, P.; et al. Proc. Natl. Acad. Sci. 2000, 97, 2904–2909.). […]

[4] = tested on: KB-31 human epidermoid carcinoma cells; experiment: Cytotoxicity, 96 hour drug exposure, protein dye method, parent epidermoid line; assay type: cell-based; settings: KB 3-1, KB-31 cells, 96 hour exposure
Protocol: (§2) The biological activities of the synthesized epothilones were evaluated through cytotoxicity, in vitro tubulin polymerization, and tubulin binding assays. Cytotoxicity was first evaluated in a set of ovarian carcinoma cell lines, including a parental cell line (IA9) and three drug-resistant cell lines, namely the paclitaxel-resistant strains (Giannakakou, P.; et al. J. Biol. Chem. 1997, 272, 17118–17125) IA9/PTX10 and IA9/PTX22 and the epothilone-resistant strain (Giannakakou, P.; et al. Proc. Natl. Acad. Sci. U.S.A. 2000, 97, 2904–2909) 1A9/A8. […]
as §1
(§3) FIG. 15 illustrates a table disclosing the tubulin polymerization potency and cytotoxicity of epothilones 1–8, 10–14, and paclitaxel against human epidermoid cancer cell lines. […] Relative resistance (RR) was calculated by dividing the IC50 value for the resistant cell line by that of the sensitive cell line. […]

KB-8511 cells [5] = experiment: Cytotoxicity, 96 hour drug exposure, protein dye method, Pgp-overexpressing line; assay type: cell-based, human; settings: versus KB-31; Table 2
Protocol: as §2, §1, §3

KB-8511 cells [6] = settings: previously shown, Tetrahedron 2002, 58, 6413; cited from earlier work

porcine tubulin, sequence (P02554 whole entry): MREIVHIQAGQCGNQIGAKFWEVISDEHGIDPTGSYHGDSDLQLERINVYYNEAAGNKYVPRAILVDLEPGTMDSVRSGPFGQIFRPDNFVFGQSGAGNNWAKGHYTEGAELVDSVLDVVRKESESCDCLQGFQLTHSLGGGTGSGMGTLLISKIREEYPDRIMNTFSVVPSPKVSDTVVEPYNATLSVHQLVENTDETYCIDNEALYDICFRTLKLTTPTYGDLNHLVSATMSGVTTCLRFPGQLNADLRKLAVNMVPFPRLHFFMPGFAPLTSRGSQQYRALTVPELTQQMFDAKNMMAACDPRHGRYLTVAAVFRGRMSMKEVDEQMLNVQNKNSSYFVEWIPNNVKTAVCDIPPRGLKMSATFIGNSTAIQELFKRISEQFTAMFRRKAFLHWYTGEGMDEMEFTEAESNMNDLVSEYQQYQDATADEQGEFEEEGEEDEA
porcine tubulin, sequence (P02550 whole entry partner): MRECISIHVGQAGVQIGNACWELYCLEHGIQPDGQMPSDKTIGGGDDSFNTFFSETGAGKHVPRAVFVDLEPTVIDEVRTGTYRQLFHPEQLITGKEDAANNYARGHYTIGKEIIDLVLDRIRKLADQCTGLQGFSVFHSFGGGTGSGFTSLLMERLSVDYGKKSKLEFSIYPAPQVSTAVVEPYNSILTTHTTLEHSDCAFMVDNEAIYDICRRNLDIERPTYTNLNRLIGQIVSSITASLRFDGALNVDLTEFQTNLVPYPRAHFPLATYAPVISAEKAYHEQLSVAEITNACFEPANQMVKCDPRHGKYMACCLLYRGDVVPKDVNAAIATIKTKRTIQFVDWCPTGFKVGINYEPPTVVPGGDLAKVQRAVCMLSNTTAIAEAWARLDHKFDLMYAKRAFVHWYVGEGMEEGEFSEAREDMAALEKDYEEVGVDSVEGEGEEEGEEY

CSc1nc(/C=C(\C)[C@@H]2C[C@@H]3O[C@]3(C)CCC[C@H](C)[C@H](O)[C@@H](C)C(=O)C(C)(C)[C@@H](O)CC(=O)O2)cs1 [Compound 3, 2-(thiomethyl)thiazole epothilone B]
fold more active than the parent epothilone B [1]: about 2 fold | Kd [2]: 0.64 ± 0.24 nM

C/C(=C\c1csc(C)n1)[C@@H]1C[C@@H]2O[C@@H]2CCC[C@H](C)[C@H](O)[C@@H](C)C(=O)C(C)(C)[C@@H](O)CC(=O)O1 [Compound 1, epothilone A]
Kd [2]: 34 ± 4 nM | % TP (tubulin polymerization) (porcine tubulin): 69%

CC(=Cc1ccc(C)cn1)C1CC2CC2(C)CCCC(C)C(O)C(C)C(=O)C(C)(C)C(O)CC(=O)O1 (centres unmarked) [Compound 8]
IC50 ([3]; Homo sapiens, 1A9 cells, 72 h SRB assay): 1.7 nM | IC50 [4]: 0.9 nM

C/C(=C\c1csc(C)n1)[C@@H]1C[C@@H]2O[C@]2(C)CCC[C@H](C)[C@H](O)[C@@H](C)C(=O)C(C)(C)[C@@H](O)CC(=O)O1 [Compound 2, epothilone B]
fold more active than epothilone A (1) ([3]; cis epoxide series, conclusion drawn collectively from all three assays): at least 10 fold | % TP (tubulin polymerization) (porcine tubulin): 90%

CC(=O)O[C@H]1C(=O)[C@@]2(C)[C@H]([C@H](OC(=O)c3ccccc3)[C@]3(O)C[C@H](OC(=O)[C@H](O)[C@@H](NC(=O)c4ccccc4)c4ccccc4)C(C)=C1C3(C)C)[C@]1(OC(C)=O)CO[C@@H]1C[C@@H]2O [paclitaxel]
fold less active against KB-8511 cells (KB-8511 cells [5]): 214 fold | % TP (tubulin polymerization) (porcine tubulin): 49% | fold less active against KB-8511 cells compared to KB-31 cells (KB-8511 cells [6]): 214 fold
